# Assay results reported in ChEMBL document CHEMBL3885861, “Open TG-GATES”.
# Organism: Rattus norvegicus
# Assay: Open TG-GATES - Regimen: Daily Repeat
# Type: toxicity, organism-based, Sprague-Dawley
# Design: regimen Daily Repeat, gender Male, age 6 weeks
# Settings: in vivo, po, route gavage; for Bas / Eos / Hb / Ht / Lym / MCH / MCHC / MCV / Mono / Neu / Plat / RBC / Ret / WBC: tissue Blood; for KIDNEY_L / KIDNEY_R / KIDNEY_TOTAL: tissue Kidney; for LIVER: tissue Liver; for A/G / ALP / ALT / AST / BUN / CRE / Ca / Cl / DBIL / GLC / IP / K / LDH / Na / PL / RALB / TBIL / TC / TG / TP / gamma-GTP: tissue Plasma
# [1] = 1000 mg/kg, 72 h, dose level Middle, time 3 day
# [2] = 1000 mg/kg, […], dose level Middle, time 7 day
# [3] = 1000 mg/kg, […], dose level Middle, time 14 day
# [4] = 1000 mg/kg, […], dose level Middle, time 28 day
# [5] = 2000 mg/kg, 72 h, dose level High, time 3 day
# [6] = 2000 mg/kg, […], dose level High, time 7 day
# [7] = 2000 mg/kg, […], dose level High, time 14 day
# [8] = 2000 mg/kg, […], dose level High, time 28 day
structure (smiles),measurement,setting,value
CC(N)=O [ACETAMIDE],TERMINAL_BW,[1],241.7 g
same,Bas,[1],0%
same,Eos,[1],0.6%
same,Hb,[1],12.4 g/dL
same,Ht,[1],38.2%
same,Lym,[1],75.6%
same,MCH,[1],20.1 pg
same,MCHC,[1],32.4%
same,MCV,[1],62 fL
same,Mono,[1],3.8%
same,Neu,[1],19%
same,Plat,[1],119 x10_4/uL
same,RBC,[1],617.4 x10_4/ul
same,Ret,[1],7.8%
same,WBC,[1],118.5 x10_2/uL
same,KIDNEY_L,[1],1 g
same,KIDNEY_R,[1],1 g
same,KIDNEY_TOTAL,[1],2 g
same,LIVER,[1],11.3 g
same,A/G,[1],1
same,ALP,[1],1645.6 IU/L
same,ALT,[1],50.4 IU/L
same,AST,[1],84 IU/L
same,BUN,[1],17.2 mg/dL
same,CRE,[1],0.1 mg/dL
same,Ca,[1],10.9 mg/dL
same,Cl,[1],104.4 meq/L
same,DBIL,[1],0 mg/dL
same,GLC,[1],186 mg/dL
same,IP,[1],6.7 mg/dL
same,K,[1],4.4 meq/L
same,LDH,[1],228.8 IU/L
same,Na,[1],140.3 meq/L
same,PL,[1],161.8 mg/dL
same,RALB,[1],2.8 g/dL
same,TBIL,[1],0.004 mg/dL
same,TC,[1],82.2 mg/dL
same,TG,[1],130.3 mg/dL
same,TP,[1],5.6 g/dL
same,gamma-GTP,[1],0.9 IU/L
same,TERMINAL_BW,[2],269.7 g
same,TERMINAL_BW,[3],332.5 g
same,TERMINAL_BW,[4],409 g
same,Bas,[2],0%
same,Eos,[2],0.8%
same,Hb,[2],13 g/dL
same,Ht,[2],39.6%
same,Lym,[2],79.2%
same,MCH,[2],20 pg
same,MCHC,[2],32.8%
same,MCV,[2],60.8 fL
same,Mono,[2],2.4%
same,Neu,[2],17.2%
same,Plat,[2],113.6 x10_4/uL
same,RBC,[2],650.4 x10_4/ul
same,Ret,[2],6.5%
same,WBC,[2],128.6 x10_2/uL
same,Bas,[3],0%
same,Eos,[3],1%
same,Hb,[3],13.3 g/dL
same,Ht,[3],39.8%
same,Lym,[3],81%
same,MCH,[3],19.7 pg
same,MCHC,[3],33.4%
same,MCV,[3],59.2 fL
same,Mono,[3],2.8%
same,Neu,[3],14.2%
same,Plat,[3],118.6 x10_4/uL
same,RBC,[3],672.6 x10_4/ul
same,Ret,[3],4.8%
same,WBC,[3],106.1 x10_2/uL
same,Bas,[4],0%
same,Eos,[4],1%
same,Hb,[4],14.5 g/dL
same,Ht,[4],43.1%
same,Lym,[4],81.6%
same,MCH,[4],18.9 pg
same,MCHC,[4],33.7%
same,MCV,[4],56.2 fL
same,Mono,[4],2.4%
same,Neu,[4],14.4%
same,Plat,[4],93.5 x10_4/uL
same,RBC,[4],767.8 x10_4/ul
same,Ret,[4],2.8%
same,WBC,[4],140.9 x10_2/uL
same,KIDNEY_L,[2],1.2 g
same,KIDNEY_R,[2],1.2 g
same,KIDNEY_TOTAL,[2],2.4 g
same,KIDNEY_L,[3],1.3 g
same,KIDNEY_R,[3],1.4 g
same,KIDNEY_TOTAL,[3],2.7 g
same,KIDNEY_L,[4],1.6 g
same,KIDNEY_R,[4],1.6 g
same,KIDNEY_TOTAL,[4],3.1 g
same,LIVER,[2],11.7 g
same,LIVER,[3],14 g
same,LIVER,[4],15.5 g
same,A/G,[2],1
same,ALP,[2],2048.4 IU/L
same,ALT,[2],47.4 IU/L
same,AST,[2],87.2 IU/L
same,BUN,[2],16 mg/dL
same,CRE,[2],0.1 mg/dL
same,Ca,[2],10.7 mg/dL
same,Cl,[2],104.7 meq/L
same,DBIL,[2],0 mg/dL
same,GLC,[2],186.2 mg/dL
same,IP,[2],6.4 mg/dL
same,K,[2],4.2 meq/L
same,LDH,[2],199 IU/L
same,Na,[2],142.7 meq/L
same,PL,[2],168 mg/dL
same,RALB,[2],2.8 g/dL
same,TBIL,[2],0 mg/dL
same,TC,[2],83.6 mg/dL
same,TG,[2],141.4 mg/dL
same,TP,[2],5.7 g/dL
same,gamma-GTP,[2],0.7 IU/L
same,A/G,[3],0.9
same,ALP,[3],1740 IU/L
same,ALT,[3],43.8 IU/L
same,AST,[3],79.2 IU/L
same,BUN,[3],18.4 mg/dL
same,CRE,[3],0.2 mg/dL
same,Ca,[3],10.5 mg/dL
same,Cl,[3],104.6 meq/L
same,DBIL,[3],0 mg/dL
same,GLC,[3],180.8 mg/dL
same,IP,[3],6.4 mg/dL
same,K,[3],4.3 meq/L
same,LDH,[3],285.4 IU/L
same,Na,[3],142.1 meq/L
same,PL,[3],153.6 mg/dL
same,RALB,[3],2.8 g/dL
same,TBIL,[3],0.002 mg/dL
same,TC,[3],83 mg/dL
same,TG,[3],135.3 mg/dL
same,TP,[3],5.7 g/dL
same,gamma-GTP,[3],0.7 IU/L
same,A/G,[4],0.9
same,ALP,[4],1250.4 IU/L
same,ALT,[4],48.6 IU/L
same,AST,[4],81 IU/L
same,BUN,[4],16.8 mg/dL
same,CRE,[4],0.2 mg/dL
same,Ca,[4],10.3 mg/dL
same,Cl,[4],103.7 meq/L
same,DBIL,[4],0.006 mg/dL
same,GLC,[4],197.2 mg/dL
same,IP,[4],5.2 mg/dL
same,K,[4],4 meq/L
same,LDH,[4],207 IU/L
same,Na,[4],142 meq/L
same,PL,[4],148.2 mg/dL
same,RALB,[4],2.8 g/dL
same,TBIL,[4],0.006 mg/dL
same,TC,[4],75.2 mg/dL
same,TG,[4],122 mg/dL
same,TP,[4],6.1 g/dL
same,gamma-GTP,[4],0.9 IU/L
same,TERMINAL_BW,[5],234.1 g
same,Bas,[5],0%
same,Eos,[5],0.4%
same,Hb,[5],13 g/dL
same,Ht,[5],40%
same,Lym,[5],78%
same,MCH,[5],20.1 pg
same,MCHC,[5],32.6%
same,MCV,[5],61.7 fL
same,Mono,[5],5.2%
same,Neu,[5],14.4%
same,Plat,[5],119.8 x10_4/uL
same,RBC,[5],647.8 x10_4/ul
same,Ret,[5],7.6%
same,WBC,[5],106.6 x10_2/uL
same,KIDNEY_L,[5],1.1 g
same,KIDNEY_R,[5],1.1 g
same,KIDNEY_TOTAL,[5],2.2 g
same,LIVER,[5],10.9 g
same,A/G,[5],1
same,ALP,[5],1650 IU/L
same,ALT,[5],60.6 IU/L
same,AST,[5],95.2 IU/L
same,BUN,[5],18.4 mg/dL
same,CRE,[5],0.1 mg/dL
same,Ca,[5],10.9 mg/dL
same,Cl,[5],103.7 meq/L
same,DBIL,[5],0.006 mg/dL
same,GLC,[5],187.4 mg/dL
same,IP,[5],7.5 mg/dL
same,K,[5],4.2 meq/L
same,LDH,[5],200.2 IU/L
same,Na,[5],140.6 meq/L
same,PL,[5],160.4 mg/dL
same,RALB,[5],2.8 g/dL
same,TBIL,[5],0.014 mg/dL
same,TC,[5],79.2 mg/dL
same,TG,[5],94.6 mg/dL
same,TP,[5],5.5 g/dL
same,gamma-GTP,[5],1 IU/L
same,TERMINAL_BW,[6],255.2 g
same,TERMINAL_BW,[7],310 g
same,TERMINAL_BW,[8],403 g
same,Bas,[6],0%
same,Eos,[6],1%
same,Hb,[6],13.7 g/dL
same,Ht,[6],41.1%
same,Lym,[6],78.2%
same,MCH,[6],19.5 pg
same,MCHC,[6],33.4%
same,MCV,[6],58.4 fL
same,Mono,[6],4%
same,Neu,[6],15.2%
same,Plat,[6],89.2 x10_4/uL
same,RBC,[6],704.6 x10_4/ul
same,Ret,[6],4.4%
same,WBC,[6],108.9 x10_2/uL
same,Bas,[7],0%
same,Eos,[7],0.4%
same,Hb,[7],14 g/dL
same,Ht,[7],41.6%
same,Lym,[7],84.8%
same,MCH,[7],19.6 pg
same,MCHC,[7],33.6%
same,MCV,[7],58.2 fL
same,Mono,[7],2.4%
same,Neu,[7],10.6%
same,Plat,[7],101.3 x10_4/uL
same,RBC,[7],713.8 x10_4/ul
same,Ret,[7],4.1%
same,WBC,[7],156.4 x10_2/uL
same,Bas,[8],0%
same,Eos,[8],0.8%
same,Hb,[8],14.8 g/dL
same,Ht,[8],44%
same,Lym,[8],78.8%
same,MCH,[8],19.4 pg
same,MCHC,[8],33.8%
same,MCV,[8],57.6 fL
same,Mono,[8],3%
same,Neu,[8],15.6%
same,Plat,[8],88.6 x10_4/uL
same,RBC,[8],763.8 x10_4/ul
same,Ret,[8],2.6%
same,WBC,[8],121.1 x10_2/uL
same,KIDNEY_L,[6],1.1 g
same,KIDNEY_R,[6],1.1 g
same,KIDNEY_TOTAL,[6],2.3 g
same,KIDNEY_L,[7],1.3 g
same,KIDNEY_R,[7],1.3 g
same,KIDNEY_TOTAL,[7],2.6 g
same,KIDNEY_L,[8],1.5 g
same,KIDNEY_R,[8],1.6 g
same,KIDNEY_TOTAL,[8],3.1 g
same,LIVER,[6],10.6 g
same,LIVER,[7],11.7 g
same,LIVER,[8],14.4 g
same,A/G,[6],1
same,ALP,[6],2391.2 IU/L
same,ALT,[6],74.6 IU/L
same,AST,[6],114.4 IU/L
same,BUN,[6],18.5 mg/dL
same,CRE,[6],0.2 mg/dL
same,Ca,[6],10.5 mg/dL
same,Cl,[6],103.1 meq/L
same,DBIL,[6],0.02 mg/dL
same,GLC,[6],194.8 mg/dL
same,IP,[6],5.9 mg/dL
same,K,[6],4.2 meq/L
same,LDH,[6],251.2 IU/L
same,Na,[6],141.3 meq/L
same,PL,[6],170.8 mg/dL
same,RALB,[6],2.8 g/dL
same,TBIL,[6],0.028 mg/dL
same,TC,[6],89.8 mg/dL
same,TG,[6],94 mg/dL
same,TP,[6],5.6 g/dL
same,gamma-GTP,[6],1.1 IU/L
same,A/G,[7],0.9
same,ALP,[7],1866.6 IU/L
same,ALT,[7],90.6 IU/L
same,AST,[7],159.8 IU/L
same,BUN,[7],17.1 mg/dL
same,CRE,[7],0.2 mg/dL
same,Ca,[7],10.1 mg/dL
same,Cl,[7],103.9 meq/L
same,DBIL,[7],0.054 mg/dL
same,GLC,[7],187.8 mg/dL
same,IP,[7],6 mg/dL
same,K,[7],4.2 meq/L
same,LDH,[7],232.2 IU/L
same,Na,[7],141.6 meq/L
same,PL,[7],156.2 mg/dL
same,RALB,[7],2.7 g/dL
same,TBIL,[7],0.07 mg/dL
same,TC,[7],87.2 mg/dL
same,TG,[7],77.7 mg/dL
same,TP,[7],5.5 g/dL
same,gamma-GTP,[7],1.6 IU/L
same,A/G,[8],0.9
same,ALP,[8],1427.6 IU/L
same,ALT,[8],55.6 IU/L
same,AST,[8],87.4 IU/L
same,BUN,[8],18 mg/dL
same,CRE,[8],0.2 mg/dL
same,Ca,[8],10.2 mg/dL
same,Cl,[8],104.2 meq/L
same,DBIL,[8],0.01 mg/dL
same,GLC,[8],199 mg/dL
same,IP,[8],5.3 mg/dL
same,K,[8],4.1 meq/L
same,LDH,[8],286.2 IU/L
same,Na,[8],141.9 meq/L
same,PL,[8],136.2 mg/dL
same,RALB,[8],2.8 g/dL
same,TBIL,[8],0.01 mg/dL
same,TC,[8],65.8 mg/dL
same,TG,[8],102.2 mg/dL
same,TP,[8],6 g/dL
same,gamma-GTP,[8],0.8 IU/L
